According to EPA's ToxValDB 9.5 (doi:10.2903/j.efsa.2006.54):

Columns and labels:
Apis mellifera = details: acute, mortality
Typhlodromus pyri = details: not reported; reproduction
Canidae = details: chronic; duration: 2 years; oral; Dog Other; clinical chemistry
Anatidae = details: short-term; oral; feed; mortality
Daphnia magna = details: chronic/long-term; duration: 21 days; reproduction
Aphidius rhopalosiphi = assay: LR50; higher = less toxic; details: not reported; mortality

CCOP(=O)=O.CCOP(=O)=O.CCOP(=O)=O.[Al+3] [Fosetyl aluminum]
LD50 (Apis mellifera; dermal): > 1000 µg/piece | LD50 (Apis mellifera; duration: 48 hours, oral, unspecified): 462 µg/piece | NOAEL (Rattus norvegicus; chronic, duration: 2 years, oral, clinical chemistry): 300 mg/kg-day | NOAEL (Rattus norvegicus; subchronic, duration: 90 days, histopathology: nonneoplastic): 500 mg/kg-day | LD50 (Coturnix coturnix; acute, oral, mortality): 5000 mg/kg | NOEC (Coturnix coturnix; reproduction developmental): 216 mg/kg-day | LEL (Typhlodromus pyri): 15000 g/ha | NOAEL (Canidae): 300 mg/kg-day | LD50 (acute, mortality): > 7080 mg/kg | NOEC (reproductive, oral, feed): 439 mg/kg-day | LC50 (Tagia sp.; acute, mortality): > 1000 mg/kg | NOEC (Tagia sp.; chronic/long-term, reproduction): 1670 mg/kg | LC50 (Anatidae): > 3540 mg/kg-day | NOEC (Daphnia magna): 17 mg/L | LC50 (Oncorhynchus mykiss; acute, duration: 96 hours, mortality): > 60 µg/mL | NOEC (Oncorhynchus mykiss; chronic/long-term, duration: 28 days, growth): 100 mg/L | LR50 (Aphidius rhopalosiphi): > 64000 g/ha
